In test [1] the test system is α1β glycine receptors (wild-type). Also noted: method as in earlier work. Conditions: heterologously expressed α1β wild-type (WT) glycine receptors; cited from earlier work.
Test [2] deals with T1, human α1R271K-GlyR expressed in HEK 293 cells (Homo sapiens, UniProt P23415, R299K).
T1 sequence (P23415 29-457 R299K): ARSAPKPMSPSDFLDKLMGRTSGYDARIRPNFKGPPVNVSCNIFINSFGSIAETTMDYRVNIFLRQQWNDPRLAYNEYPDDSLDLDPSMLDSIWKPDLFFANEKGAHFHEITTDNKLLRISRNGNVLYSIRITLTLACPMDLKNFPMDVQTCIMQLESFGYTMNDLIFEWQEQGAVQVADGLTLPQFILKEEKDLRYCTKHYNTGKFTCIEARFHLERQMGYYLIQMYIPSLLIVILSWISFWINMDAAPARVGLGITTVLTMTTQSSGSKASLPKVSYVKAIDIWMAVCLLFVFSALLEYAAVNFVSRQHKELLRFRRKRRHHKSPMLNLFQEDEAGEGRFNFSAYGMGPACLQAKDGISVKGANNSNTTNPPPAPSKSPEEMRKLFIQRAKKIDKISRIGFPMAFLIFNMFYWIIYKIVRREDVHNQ
Conditions: R271K. An excerpt:
(§1) Human α1-, α1R271Q-, α1R271L-, α1R271K and α1S267I-GlyR subunits were transiently transfected into human embryonic kidney cells (HEK 293, ATCC, Manassas, USA). The wild type α1-GlyR -cDNA was cloned in pCIS2 (Invitrogen, San Diego, USA) vector and provided by Prof. Heinrich Betz (Max-Planck-Institut für Hirnforschung, Frankfurt am Main, Germany). For the plasmid cDNA of the mutated α1R271Q-, α1R271L-, α1R271K- and α1S267I-GlyR the eukaryotic expression vector pcDNA1amp (Invitrogen, San Diego, USA), under the control of cytomegalovirus promoter, was used. For site-directed mutagenesis, single stranded template cDNA was synthesized from M13 origin of replication and the mutations of arginine residue (R) at position 271 to glutamine (R271Q), leucine (R271L) or lysine (R271K) and mutation of serine residue (S) at position 267 to isoleucine (S267I) were generated using standard procedures. […] Wild type and mutated α1-GlyR subunits efficiently form homomeric receptors in heterologous expression systems.
(§2) HEK 293 cells were cultured in medium containing HAMS’F-12 (Biochrom, Berlin, Germany), supplemented with 10% fetal bovine serum (FBS, Biochrom, Berlin, Germany), 100 U ml^–1 penicillin and 100μgml^–1 streptomycin (Gibco BRL, Life Technologies, Karlsruhe, Germany) at 37°C in a 5% CO2/ 95% air incubator. For transfection cells were suspended in a buffer containing 50mM K2HPO4 (Fluka BioChemika, Seelze, Germany), 20mMK-acetate (Sigma-Aldrich, Taufkirchen, Germany) and 25mM MgSO4 (Sigma-Aldrich, Taufkirchen, Germany) at pH 7.35. To visualize transfected cells, they were co-transfected with cDNA encoding for enhanced green fluorescent protein (EGFP) contained in the pEGFP-N1 expression vector (Clontech, Palo Alto, USA). The corresponding cDNA (5μg for the GlyR and 2.5μg for EGFP) was added to 400μl of the cell suspension and the mixture was rapidly transferred into the electroporation cuvette. For transfection we used an electroporation device by EquiBio (Kent, UK) and a 4mm aluminum electrode electroporation cuvette (Peqlab, Erlangen, Germany).
(§3) The phenol derivative 4-chloropropofol ([…]) was provided as pure substance by Prof. Paul M. O’Neill (University of Liverpool, England), prepared as light-protected 1M stock solution in ethanol (EtOH, J.T.Baker, Griesheim, Germany) and stored in glass vessels at −20°C.
(§4) Drug-containing vials were vigorously vortexed for 30min. Patch electrodes were filled with an intracellular solution of [mM] KCl 140, MgCl2 2, EGTA 11, HEPES 10, glucose 11, CaCl2 1 with pH 7.3, adjusted with 1 M KOH and a bath solution contained [mM] NaCl 162, KCl 5.31, NaHPO4 0.85, KH2PO4 0.22, HEPES 15, glucose 6.11, pH 7.4 adjusted with 1 M NaOH. Osmolarity of both solutions was set at 280–300 mOsmol.
(§5) Whole-cell experiments were performed at a holding potential of −30 mV with a mean seal resistance of 1 GΩ. […] A fast liquid filament switch technique was used for the application of the agonist, presented in pulses of 2 s duration every 20 s. The liquid filament switch technique is able to exchange the solution passing an outside-out patch or small whole-cells within 1–2 ms. We calculated flow rate of background solution through the chamber with 3,4 ml/min corresponding to 4% of maximal pump rate. With regard to the chamber volume of 100 μl the exchange solution time within the chamber was assessed to approximately […], dependent on cell size accordingly. Piezo-switch and small diameter capillary (ID 0.15 mm) within the measurement chamber promoted the millisecond solution exchange. […] The induced current (I) by this saturating control solution was defined as Icontrol. […] The stability of the seal was controlled during the complete experiment via control of the seal resistance. A variation of 10-20% of the basic value was regarded as tolerable.

The target of test [3] is T2, human α1R271L-GlyR expressed in HEK 293 cells (Homo sapiens, UniProt P23415, R299L).
T2 sequence (P23415 29-457 R299L): T1 sequence (P23415 29-457 R299K) with K271L
Conditions: R271L.
Text: as §1, §2, §3, §4, §5

The mark [4] stands for this setting: 10-90% of Imax, monoexponential fit.

Numbering of substitutions follows the chain as printed.

Regarding “4-chloro-2,6-dimethylphenol [4-chloropropofol]”, the “potency relative to propofol in enhancing glycine induced currents” value in test [1] is on record as roughly 1000 fold.

As to `NCC(=O)O` [glycine], the “Current amplitude [% of mean WT current amplitude] ± SEM” value is given as 32.0±18% in test [2] and 20.5±12% in test [3]. The figures for the “nH ± SEM (Hill coefficient), glycine activation” value in test [2] and in test [3] were 1.0±0.5 and 1.8±0.7, respectively. Moreover, the “Rise time ± SEM” value in test [2] (setting [4]) was 14.9 ± 7.7 ms; in test [3] (setting [4]), 998 ± 129 ms. Besides, the “Mean current amplitude ± SEM” value is given as 526±97 pA in test [2] (saturating glycine 10 mM) and 336±51 pA in test [3] (saturating glycine 300 mM).
